Columns and labels:
[1] = for vapor or sublimation pressure: Liquid, Calculated from knudsen effusion weight loss
[2] = Molar enthalpy of transition or fusion; details: Crystal; Adiabatic calorimetry
[3] = molar heat capacity at constant pressure; details: 101.33 kPa, Small (less than 1 g) adiabatic calorimetry
[4] = activity coefficient (dimensionless); of the first substance listed, at infinite dilution; xn = mol fraction of the nth substance listed; details: Liquid, Chromatography, x1 = 0

CCCCCC[n+]1ccn(C)c1.O=S(=O)([N-]S(=O)(=O)C(F)(F)F)C(F)(F)F
Details | Normal melting temperature [°C]
[1], Crystal, visual observation | -1

O=C1CCCCCN1 [1-aza-2-cycloheptanone]
[1]
Details | vapor or sublimation pressure [kPa]
315.3 K | 0.00286
320.3 K | 0.00442
331.9 K | 0.01144

Details | Triple point temperature [K] | molar heat capacity at constant pressure [J/K/mol]
[1], Crystal, Adiabatic calorimetry | 342.22 | –
[3], 316 K, Crystal | – | 168
[3], 319 K, Crystal | – | 169.4
[3], 322 K, Crystal | – | 171.1
[3], 323 K, Liquid | – | 232.3
[3], 325 K, Crystal | – | 173
[3], 326 K, Liquid | – | 233.8
[3], 328 K, Crystal | – | 175.1
[3], 329 K, Liquid | – | 235.3
[3], 331 K, Crystal | – | 177.5
[3], 332 K, Liquid | – | 236.7
[3], 334 K, Crystal | – | 180.1
[3], 335 K, Crystal | – | 181
[3], 335 K, Liquid | – | 238.2
[3], 338 K, Liquid | – | 239.7
[3], 341 K, Liquid | – | 241.2
[3], 344 K, Liquid | – | 242.7
[3], 347 K, Liquid | – | 244.2
[3], 350 K, Liquid | – | 245.7
[3], 353 K, Liquid | – | 247.1
[3], 356 K, Liquid | – | 248.6
[3], 359 K, Liquid | – | 250.1
[3], 362 K, Liquid | – | 251.6
[3], 365 K, Liquid | – | 253.1
[3], 368 K, Liquid | – | 254.6

Details | Molar enthalpy of transition or fusion [kcal/mol]
[2] | 3.862

O=C1CCCCCN1 [1-aza-2-cycloheptanone] + CCCCCC[n+]1ccn(C)c1.O=S(=O)([N-]S(=O)(=O)C(F)(F)F)C(F)(F)F
Details | activity coefficient
[4], 427.5 K | 0.49

ON=C1CCCCC1 [cyclohexanone oxime] + CCCCCC[n+]1ccn(C)c1.O=S(=O)([N-]S(=O)(=O)C(F)(F)F)C(F)(F)F
[4]
Details | activity coefficient
375.4 K | 2.41
386 K | 2.22
396.5 K | 2.03
407 K | 1.84
417.1 K | 1.67
417.6 K | 1.61
427.5 K | 1.51
438 K | 1.28

Source: the NIST ThermoML archive (doi:10.1021/je7000683)
